Laboratory results as given in paper PMC3454376, “Salidroside Improves Behavioral and Histological Outcomes and Reduces Apoptosis via PI3K/Akt Signaling after Experimental Traumatic Brain Injury” (PLoS ONE, 2012).

System: mice subjected to controlled cortical impact injury
Assay: Contusion volume, cresyl violet staining
Type: in vivo
Settings: day 28; for contusion volume: vehicle 13.5±4.0
Procedure: All animal procedures were approved by the Animal Research Committee at Cheng Hsin General Hospital (Animal permit number […] 101-08), and all procedures complied with the Guide for the Care and Use of Laboratory Animals published by the US National Institutes of Health (NIH Publication No. 85-23, revised 1996). Animals were housed under a 12-h light/dark cycle and at constant temperature (21-25°C) and humidity (45-50%). They were allowed free access to pellet chow and water. TBI in mice was induced by a CCI injury model as previously described. Briefly, 8-week-old male C57BL/6 mice (weighing 22-25 g) were anesthetized through the use of intraperitoneal injection of sodium pentobarbital (65 mg/kg; Rhone Merieux, Harlow, UK) and placed in a stereotaxic frame. A 5 mm craniotomy was performed over the right parietal cortex, centered on the coronal suture and 0.1 mm lateral to the sagittal suture, and injury to dura was avoided. Injury was induced using a pneumatic piston with a rounded metal tip (2.5 mm diameter) that was angled 22.5° to the vertical so that the tip was perpendicular with the brain surface at the center of the craniotomy. The impact, with a velocity of […] and a deformation depth of 2 mm below the dura, was applied. The bone flap was immediately replaced and sealed, and the scalp was sutured. Body temperature was monitored throughout the surgery by a rectal probe; temperature was maintained at 37.0±0.5°C using a heated pad. Mice were placed in a heated cage to maintain body temperature, while recovering from anesthesia. Sham-operated mice underwent the same procedure as injured mice, but without CCI. Three sets of experiments were performed. The first set was to investigate the protective effects of salidroside. All animals were randomized into 1 of 3 groups (sham injury, CCI + vehicle, CCI + SALD 20). […] To determine the optimal dose of salidroside, a pilot study was performed using 2 different doses (20 and 50 mg/kg) administered 10 min after injury, and neurological deficits and tissue damage were evaluated as the main outcomes. […]

With `OC[C@H]1O[C@@H](OCCc2ccc(O)cc2)[C@H](O)[C@@H](O)[C@@H]1O` [SALD, salidroside] the “contusion volume as % of the vehicle group” value (20 mg/kg ip 10 min after CCI) was 73.8%, the contusion volume (20 mg/kg ip 10 min after CCI, P<0.05) was 9.9±1.1 mm^3 and the contusion volume (50 mg/kg ip 10 min after CCI, P>0.05) was 11.7±3.2 mm^3.
